Laboratory results published in US8784633B2, “Automatic positioning and sensing microelectrode arrays” (priority 2007, dated 2014).

Tested on: cortical neurons
Experiment: Multi-site recording of extracellular spontaneous electrophysiological activity of cortical neuronal networks on APSMEA
Type: cell-based, rat
Experimental: FIG. 3 is a process flow diagram 300 of a process for controlling movement of target cells into a predetermined location using negative DEP forces. At 302, target cells (e.g., neuronal cells) in suspension are introduced onto a APSMEA device 100. The target cells are prepared according to institutional guidelines for care and use of animals. For example, to obtain neuronal cells, cortical neurons are excised from 18-day rat embryos and dissociated by trituration after digestion with papain (20 U/ml). The neurons are then resuspended in Neurobasal medium with B27 supplement and 500 μM glutamine. The medium initially added to new cultures are also supplemented with 25 μM glutamate and 25 μM β-mercaptoethanol. With four different concentrations, i.e., 1×10^5 cells/ml, 2×10^5 cells/ml, 5×10^5 cells/ml and 1×10^6 cells/ml, neurons are seeded on the APSMEA device 100 after coating with poly-L-lysine (50 μg/ml) and laminin (10 μg/ml).
FIG. 6a-c represent results of multi-site recordings of extracellular spontaneous electrophysiological activities from cortical neuronal networks (14 DIV) for control (no DEP forces applied) and manipulated (with DEP forces applied) cells at the seeding cell concentration of 5×10^5 cells/ml. Multi-site electrophysiological recordings in this and other implementations can be performed with the APSMEA device connected with a commercial multi-channel amplifier and filtering stage (Cyberkinetics, Salt Lake City, Utah). Measurements are carried out in 14 days old cortical cultures at 37° C., allowing the signals from the recording electrodes 122 amplified (×5000), band-pass filtered (250-7500 Hz), and sampled at 30 kHz/channel on 25 channels simultaneously. Using ±3 times of the standard deviation of the noise level as the threshold value for each channel, electrophysiological activities are detected on-line or off-line. NMDA (5 μM) and APV (5 μM) are also applied in the culture medium, and their related electrophysiological activities before and after any drug (e.g., chemical compounds) administration are both recorded for 10 min. […]

[1] = 5 μM in culture medium, cortical neurons 14 DIV, 10 min recording, n=4 separate APSMEAs

Molecule: CN[C@H](CC(=O)O)C(=O)O [NMDA]
- induced activity level relative to controls [1]: increase three times more than that of controls

Molecule: N[C@@H](CCCP(=O)(O)O)C(=O)O [APV]
- electrical activity level (sum of spikes over all active sites) compared with no drug added control [1]: 7.8±7.5 % of control

Molecule: TTX
- effect on recorded extracellular action potentials (electrical activities): inhibited
